Results from patent US20250346633A1, “MACOLACINS AND METHODS OF USE THEREOF” (priority 2021, published 2025).
≈ marks a conversion by molar mass, not a printed value. Read-outs that look alike come from different tables or passages of the source. Bridge positions count the residues as written; N and C are the ends. Square brackets hold non-standard residues; d marks the D form. Peptide text beside a SMILES is read from it. * marks the point of attachment. Benzoyl(4-Ph) = O=C(c1ccc(-c2ccccc2)cc1)*; X1 = CC[C@H](C)CCCCC(=O)*; Dab = NCC[C@H](N)C(=O)O

Tests used:
[1] = mouse, in vivo, sc, 10 mg/kg
Protocol: (§1) Six-week old CD-1 female mice (20-25 g) were used in pharmacokinetic studies. […] Aliquots of 20 μL of blood were taken by puncture of the lateral tail vein from each mouse (n=2 per route and dose) at 30 minutes, 1, 3, and 5 hours post-dose and captured in CB300 blood collection tubes containing K2EDTA and stored on ice. Plasma was recovered after centrifugation and stored at −80° C. until analyzed by high pressure liquid chromatography coupled to tandem mass spectrometry. […] Standards and QCs were created by adding 10 μL of spiking solutions to 90 μL of drug free plasma (CD-1 K2EDTA Mouse, Bioreclamation IVT). 10 μL of control, standard, QC, or study samples were added to 10 μL of internal standard. […] The compounds were extracted by adding 100 μL of 50% Methanol/50% (10% Trichloroacetic acid in water) precipitation solvent. Extracts were vortexed for 5 minutes and centrifuged at 4,000 rpm for 5 minutes. 75 μL of supernatant was transferred for HPLC-MS/MS analysis and diluted with 75 μL of Milli-Q deionized water. LC-MS/MS analysis was performed on a Sciex Applied Biosystems Qtrap 6500+triple-quadrupole mass spectrometer coupled to a Shimadzu Nexera×2 UHPLC system to quantify each drug in plasma. […] Multiple-reaction monitoring of parent/daughter transitions in electrospray positive-ionization mode was used to quantify the analytes. […]

[2] = tested on: CRAB, as well as a panel of XDR A. baumannii clinical isolates; conditions: CRAB and XDR A. baumannii clinical isolates, even when transformed with mcr-1
Protocol: MIC assays were conducted following the protocol recommended by the Clinical and Laboratory Standards Institute (Testing E C et al., 2016, EUCAST: Växjö; Wikler M A et al., 2006, CLSI (NCCLS), 26: M7-A7). […] Polymyxin B sulfate (Sigma, USA) and colistin sulfate (Sigma, USA) were used as positive controls. […] The top and bottom rows of each plate were filled with 100 μL of LB broth without compound to avoid edge effects. The last well in each row was treated as a negative control. It contained bacteria but no test compounds. A single colony of each assayed bacterial strain was inoculated into 5 mL of LB broth medium and grown overnight at 37° C. (200 rpm). For assays using bacteria containing mcr-1 expression plasmids, the appropriate selection antibiotic was added to keep the plasmid stable (concentrations are listed in Table 5). Saturated overnight cultures were diluted 5,000-fold in fresh LB, and then 50 μL was transferred into individual wells of a 96-well plate.

[3] = tested on: A. baumannii 0301 with mcr-1; conditions: colistin R
[4] = tested on: A. baumannii ATCC17978 (pMQ124xlab1-mcr-1)
[5] = tested on: K. pneumoniae and A. baumannii; experiment: MIC upon addition of cell wall components (lipid A, LPS) to the media; type: cell-based, Klebsiella pneumoniae; Acinetobacter baumannii; conditions: FIG. 3C; n=2
A. baumannii ATCC17978 [6] = experiment: CHIR-090 inhibition assay (growth curves); type: cell-based, Acinetobacter baumannii; conditions: for A. baumannii growth: antibiotic alone at concentrations above MIC; for A. baumannii growth / A. baumannii growth with CHIR-090 included: 48 hours; for A. baumannii growth with CHIR-090 included: antibiotic plus CHIR-090
[7] = tested on: K. pneumoniae and A. baumannii transformed with a plasmid expressing mcr-1; type: cell-based, Klebsiella pneumoniae; Acinetobacter baumannii
[8] = tested on: E. cloacae ATCC13047 (ΔphoP/Q + phoP/Q); conditions: colistin R
Protocol: (§2) MIC assays were conducted following the protocol recommended by the Clinical and Laboratory Standards Institute (Testing E C et al., 2016, EUCAST: Växjö; Wikler M A et al., 2006, CLSI (NCCLS), 26: M7-A7). […] Polymyxin B sulfate (Sigma, USA) and colistin sulfate (Sigma, USA) were used as positive controls. […] The top and bottom rows of each plate were filled with 100 μL of LB broth without compound to avoid edge effects. The last well in each row was treated as a negative control. It contained bacteria but no test compounds. A single colony of each assayed bacterial strain was inoculated into 5 mL of LB broth medium and grown overnight at 37° C. […] Saturated overnight cultures were diluted 5,000-fold in fresh LB, and then 50 μL was transferred into individual wells of a 96-well plate.

[9] = tested on: A. baumannii SM1536 (pMQ124xlab1-mcr-1)
Gram−positive pathogens = experiment: MIC against ESKAPE pathogens; type: cell-based; conditions: highest concentration tested 128 μg/mL
E. cloacae 0150 = conditions: colistin S, n=2
P. aeruginosa PA01 = conditions: colistin S, n=2
[10] = tested on: K. pneumoniae 0497 (mcr-1 clinical isolate); conditions: colistin R
E. faecium Com15 = conditions: colistin R, n=2
A. baumannii SM1536 = conditions: colistin S
[11] = tested on: K. pneumoniae ATCC13883 (pMQ124-mcr-1)
A. baumannii ATCC17978 [12] = tested on: A. baumannii ATCC17978
[13] = tested on: S. typhimurium 0635 (mcr-1 clinical isolate); conditions: colistin R
K. pneumoniae 10031 = conditions: colistin S, n=2
[14] = tested on: E. cloacae ATCC13047 (ΔphoP/Q)
Protocol: as §2

K. pneumoniae ATCC13883 = conditions: colistin S, mcr-1 engineered pair
S. aureus SH1000 = conditions: colistin R, n=2
A. baumannii 0296 = conditions: mcr-1 −, colistin S
MTT cytotoxicity assay = type: cell-based; conditions: HEK293, human cells
Protocol: Compounds with different concentrations were then added into each well. After 48 h of incubation, the media was removed and MTT solution (0.45 mg/mL) was added into each well. After 3 h of incubation, the solution was aspirated. […] The absorbance of each well was measured at OD570nm using a microplate reader (Epoch Microplate Spectrophotometer, BioTek). Taxol was used as the positive control. […] All the experiments were performed triplicates (n=3).

[15] = tested on: A. baumannii SM1536-(mcr-1); experiment: Neutropenic thigh infection model; type: in vivo, Acinetobacter baumannii; conditions: neutropenic mouse thigh, 20 mg/kg SC at 6 hour intervals, 24 h
Protocol: (§3) After 24 hours the bacterial burden in each infected thigh was determined based on colony forming units (CFUs) that arose from homogenized tissue samples.
(§4) Six-week old female outbred Swiss Webster mice (20-25 g) were used for this experiment. Mice were housed in individually ventilated cages (IVC) and maintained in accordance with American Association for Accreditation of Laboratory Care criteria. Acinetobacter baumannii SM1536-(mcr-1) or A. baumannii-0301-(mcr-1) was grown in cation adjusted Mueller Hinton (MH) broth containing 50 μg/mL of gentamycin at 37° C. with shaking overnight. The cultures were centrifuged, supernatant aspirated and the bacteria were gently washed twice in sterile saline. […] All mice were closely monitored post-infection for morbidity. Any abnormal clinical signs were recorded if observed. […] The treatment efficacy was determined both as the bacterial burden reduction in the thighs relative to the vehicle and colistin treated controls. All graphic data are expressed as columnar average data points by group and were statistically analyzed using computer Prism software (Prism 9). Burden differences between testing and control groups was assessed by post-hoc analysis, using the Mann-Whitney comparison test. […]

[16] = Pharmacokinetics assessment; conditions: mice; single subcutaneous dose of 10 mg/kg; FIG. 9
Protocol: as §1

A. baumannii 0295 = conditions: mcr-1 −, colistin S
[17] = tested on: A. baumannii-0301-(mcr-1); experiment: Neutropenic thigh infection model; type: in vivo, Acinetobacter baumannii; conditions: neutropenic mouse thigh, 20 mg/kg SC at 6 hour intervals, 24 h
Protocol: as §3, §4

A. baumannii 0287 = conditions: mcr-1 −, colistin S
[18] = tested on: A. baumannii 0287 with mcr-1; conditions: colistin R
A. baumannii 0282 = conditions: mcr-1 −, colistin S
[19] = tested on: A. baumannii 0295 with mcr-1; conditions: colistin R
A. baumannii 0286 = conditions: mcr-1 −, colistin S
[20] = extremely highly colistin resistant A. baumannii
[21] = A. baumannii ATCC17978, colistin S, mcr-1 engineered pair
[22] = A. baumannii SM1536 (pMQ124xlab1-mcr-1), colistin R

With `CC[C@H](C)[C@@H]1NC(=O)[C@@H](CC(C)C)NC(=O)[C@H](CCN)NC(=O)[C@@H](NC(=O)[C@@H](CO)NC(=O)[C@@H](NC(=O)[C@H](CCN)NC(=O)c2ccc(-c3ccccc3)cc2)[C@@H](C)O)CCNC(=O)[C@H](CC(C)C)NC(=O)[C@H](CCN)NC(=O)[C@H](CCN)NC1=O` [Biphenyl-macolacin] ({Benzoyl(4-Ph)}-[Dab]T[dS][Dab][Dab][dL]I[Dab][Dab]L; lactam 4-C) the “plasma drug exposure (pharmacokinetic profile)” value [1] was “parity in plasma drug exposure”, the MICs [2] was less than 2 µg/mL and the “Antibiotic MIC” value (A. baumannii 0301; 0301) was 0.5 µg/mL. The “Antibiotic MIC” value [3] was 1 µg/mL, the “Antibiotic MIC” value ([3]; listed as biphenyl-macolacin) was less than 2 µg/mL and the MIC (Proteus vulgaris) was 4 µg/mL (≈ 3.31 µM).
With `CC[C@H](C)CCCCC(=O)N[C@@H](CCN)C(=O)N[C@H](C(=O)N[C@H](CO)C(=O)N[C@H]1CCNC(=O)[C@H](CC(C)C)NC(=O)[C@H](CCN)NC(=O)[C@H](CCN)NC(=O)[C@H]([C@@H](C)CC)NC(=O)[C@@H](CC(C)C)NC(=O)[C@H](CCN)NC1=O)[C@@H](C)O` [Macolacin] (X1-[Dab]T[dS][Dab][Dab][dL]I[Dab][Dab]L; lactam 4-C) the MIC [4] was 2 µg/mL (≈ 1.71 µM), the “change of MIC on addition of lipid A or lipopolysaccharide (LPS) to the assay media” value [5] was “significant increase” and the “Antibiotic MIC” value (A. baumannii 0301; 0301) was 0.5 µg/mL. The A. baumannii growth (A. baumannii ATCC17978 [6]) was “completely abrogated A. baumannii growth”, the “A. baumannii growth with CHIR-090 included” value (A. baumannii ATCC17978 [6]) was “rescued A. baumannii growth” and the “increase in MIC upon mcr-1 expression” value [7] was 2- to 4 fold. For the same compound, the MIC [8] was 2 µg/mL (≈ 1.71 µM), the MIC [9, 20] was 8 µg/mL (≈ 6.85 µM) and the “activity against Gram−positive pathogens” value (Gram−positive pathogens) was “no activity”.
With Polymyxin B the MIC (E. cloacae 0150) was 1 µg/mL, the MIC (P. aeruginosa PA01) was 2 µg/mL and the MIC [4] was 16 µg/mL. For the same compound, the MIC [10] was 32 µg/mL, the MIC (E. faecium Com15) was greater than 128 µg/mL and the MIC (A. baumannii SM1536) was 1 µg/mL. For the same compound, the MIC [11] was 128 µg/mL, the MIC (A. baumannii ATCC17978 [12]) was 0.5 µg/mL and the MIC (A. baumannii ATCC17978 [12]; [21]) was 0.5 µg/mL. It also gave an MIC [13] of 16 µg/mL, an MIC (K. pneumoniae 10031) of 1 µg/mL and an MIC [8] of 32 µg/mL. The MIC ([8]; listed as polymyxin B) was “resistant”, the MIC [9, 22] was 128 µg/mL and the MIC [14] was 1 µg/mL. For the same compound, the MIC (K. pneumoniae ATCC13883) was 1 µg/mL and the MIC (S. aureus SH1000) was greater than 128 µg/mL.
In the case of `C[C@@H](O)[C@H](NC(=O)c1ccc(C#Cc2ccc(CN3CCOCC3)cc2)cc1)C(=O)NO` [CHIR-090], the “A. baumannii growth, CHIR-090 alone” value (A. baumannii ATCC17978 [6]; CHIR-090 alone) is reported as “did not inhibit A. baumannii growth”.
In the case of `CC[C@H](C)CCCCC(=O)N[C@@H](CCN)C(=O)N[C@H](C(=O)N[C@@H](CCN)C(=O)N[C@H]1CCNC(=O)[C@H]([C@@H](C)O)NC(=O)[C@H](CCN)NC(=O)[C@H](CCN)NC(=O)[C@H](CC(C)C)NC(=O)[C@@H](CC(C)C)NC(=O)[C@H](CCN)NC1=O)[C@@H](C)O` [Colistin, colistin] (X1-[Dab]T[Dab][Dab][Dab][dL]L[Dab][Dab]T; lactam 4-C), the “Antibiotic MIC” value (A. baumannii 0296) is reported as 0.25 µg/mL, the MIC (E. cloacae 0150) is reported as 1 µg/mL (≈ 0.855 µM) and the IC50 at 48 h (MTT cytotoxicity assay) is reported as greater than 512 µg/mL. The MIC (P. aeruginosa PA01) was 1 µg/mL (≈ 0.855 µM), the “bacterial burden in infected thighs” value [15] was “did not reduce the bacterial burden below the level of the initial infection” and the MIC ([4]; ATCC17978) was 32 µg/mL (≈ 27.4 µM). The MIC [10] was 32 µg/mL (≈ 27.4 µM), the “plasma drug exposure (pharmacokinetic profile)” value [16] was “parity in plasma drug exposure” and the “change of MIC on addition of lipid A or lipopolysaccharide (LPS) to the assay media” value [5] was “significant increase”. The MIC (E. faecium Com15) was greater than 128 µg/mL, the “Antibiotic MIC” value (A. baumannii 0301; A. baumannii 0301, mcr-1 −, colistin S) was 0.25 µg/mL and the MIC (A. baumannii SM1536) was 0.5 µg/mL (≈ 0.428 µM). For the same compound, the A. baumannii growth (A. baumannii ATCC17978 [6]) was “completely abrogated A. baumannii growth”, the “A. baumannii growth with CHIR-090 included” value (A. baumannii ATCC17978 [6]) was “rescued A. baumannii growth” and the MIC ([11]; ATCC13883) was 64 µg/mL (≈ 54.7 µM). For the same compound, the “Antibiotic MIC” value [3] was greater than 128 µg/mL, the “Antibiotic MIC” value ([3]; listed as colistin) was greater than 64 µg/mL and the MIC (A. baumannii ATCC17978 [12]; [21]) was 1 µg/mL (≈ 0.855 µM). The “Antibiotic MIC” value (A. baumannii 0295) was 0.25 µg/mL, the “bacterial burden in infected thighs” value [17] was “did not reduce the bacterial burden below the level of the initial infection” and the “Antibiotic MIC” value (A. baumannii 0287) was 0.5 µg/mL. The MIC [13] was 16 µg/mL (≈ 13.7 µM), the “Antibiotic MIC” value [18] was 64 µg/mL and the “Antibiotic MIC” value (A. baumannii 0282) was 0.5 µg/mL. For the same compound, the MIC (K. pneumoniae 10031) was 0.5 µg/mL (≈ 0.428 µM), the MIC [8] was 32 µg/mL (≈ 27.4 µM) and the MIC ([8]; listed as colistin) was “resistant”. For the same compound, the MIC [9, 22] was 128 µg/mL (≈ 109 µM), the MIC [9, 20] was greater than 128 µg/mL and the MIC [14] was 1 µg/mL (≈ 0.855 µM). The “Antibiotic MIC” value [19] was greater than 128 µg/mL, the MIC (K. pneumoniae ATCC13883) was 1 µg/mL (≈ 0.855 µM) and the “Antibiotic MIC” value (A. baumannii 0286) was 1 µg/mL. The MIC (S. aureus SH1000) was greater than 128 µg/mL.
